Reference: ChEMBL document CHEMBL1133398, “Mechanism-based inactivation of thymidylate synthase by 5-(3-fluoropropyn-1-yl)-2'-deoxyuridine 5'-phosphate” (Bioorg Med Chem Lett, 2000)
pKi: −log10 of the molar value.

Columns and labels:
Thymidylate synthase = biological target: T1, Thymidylate synthase (Lactobacillus casei, UniProt P00469); assay: The compound was evaluated for the binding affinity against Lactobacillus casei dTMP synthase using spectrophotometric assay; set-up: species or system Lacticaseibacillus casei
T1 sequence (P00469 whole entry): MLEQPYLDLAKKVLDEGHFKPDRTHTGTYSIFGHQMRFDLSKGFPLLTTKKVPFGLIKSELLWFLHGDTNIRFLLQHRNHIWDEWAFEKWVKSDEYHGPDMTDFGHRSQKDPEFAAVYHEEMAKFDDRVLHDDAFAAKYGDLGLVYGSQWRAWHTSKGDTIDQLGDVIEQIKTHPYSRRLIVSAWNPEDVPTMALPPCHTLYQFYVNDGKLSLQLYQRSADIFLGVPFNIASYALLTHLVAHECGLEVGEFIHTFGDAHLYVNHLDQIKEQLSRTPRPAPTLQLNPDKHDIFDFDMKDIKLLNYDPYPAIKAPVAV

[1] = Half life was determined; format: ADME; conditions: rat

pKi (Thymidylate synthase): 7.83 | half-life [1]: < 1 min
Compound: O=c1[nH]c(=O)n([C@H]2C[C@H](O)[C@@H](COP(=O)(O)O)O2)cc1C#CCF
